Data reported in patent US20090233938A1, “Thiazole derivatives as a2b antagonists” (priority 2004, published 2009).

Assays:
[1] = biological target: T1, human adenosine A2b receptor (Homo sapiens, UniProt P29275); experiment: Adenosine A2b receptor reporter gene assay (luciferase, CHO-A2b cells, NECA agonist); format: cell-based; conditions: CHO cells with pCRE-LUCI and human A2b receptor; antagonist at 100 nM or 1 μM; shift of NECA concentration-response curve; KB=[antagonist]/(concentration ratio−1)
T1 construct: expressed in transfected cells; host or cells: CHO cells co-transfected with reporter plasmid pCRE-LUCI and pA2bRCV
T1 sequence (P29275 1-332): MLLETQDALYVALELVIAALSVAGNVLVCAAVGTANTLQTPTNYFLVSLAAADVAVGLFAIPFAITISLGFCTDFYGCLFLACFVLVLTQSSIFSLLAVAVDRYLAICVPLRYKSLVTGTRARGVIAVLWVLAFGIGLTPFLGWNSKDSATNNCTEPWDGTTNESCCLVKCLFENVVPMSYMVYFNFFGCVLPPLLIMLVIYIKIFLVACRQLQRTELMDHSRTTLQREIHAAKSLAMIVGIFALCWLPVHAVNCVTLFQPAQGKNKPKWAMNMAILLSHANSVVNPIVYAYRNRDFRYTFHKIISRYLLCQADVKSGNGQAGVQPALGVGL
Description: Adenosine A2b Receptor Reporter Gene Assay a) Culturing of Chinese Hamster Ovary (CHO) A2b Cell Line
CHO cells transfected with a Luciferase-expressing reporter plasmid (pCRE-LUCI) and with a plasmid carrying the human adenosine A2b receptor structural gene (pA2bRCV) are routinely cultured in Dulbecco's Modified Eagle Medium (DMEM)—supplemented with 10% v/v fetal calf serum (FCS), 2 mM L-glutamine, 0.4 mg/ml L-proline, 1 nM sodium selenite, 0.5 mg/ml Hygromycin B and 1 mg/ml Geneticin—at 37° C., 5% CO2 and 100% humidity. The cells are left to grow to confluence for 4-5 days. The cells obtained are passaged using trypsin/EDTA and split at a ratio of 1 in 5. […]
b) Preparation of Cells for Assay
Prior to the assay, the CHO-A2b cells are plated onto white 96-well View Plate tissue culture plates (Packard) at a density of 50,000 cells per well in 50 μl of DMEM, and the plates are incubated at 37° C., 5% CO2 and 100% humidity. […]
c) Preparation of Reference and Test Compounds
10 mM solutions of the reference compound, Xanthine Amine Cogener (XAC), and the test compound in dimethyl sulfoxide (DMSO) are prepared. The solutions are further diluted with DMSO to 100 μM, then diluted to 10 μM, and finally to 250 nM or 2.5 μM with Assay Buffer (DMEM Phenol Red-free tissue culture media supplemented with 10 μM Rolipram and 10 U/ml adenosine deaminase (ADA). The resulting solutions (40 μl) are added to the cells in the appropriate wells, the final concentration per well being 100 nM or 1 μM, and the plates are incubated at 37° C., 5% CO2 and 100% humidity. […]
d) Luciferase Reporter Gene Assay
5′-N-ethylcarboxamidoadenosine (NECA), an adenosine A2b agonist, is prepared as a […] solution in DMSO and then diluted to 100 μM with Assay Buffer. This solution is serially diluted in Assay Buffer to give a series of 10 NECA concentrations from 100 to 0.01 μM. 10 μl portions of the resulting NECA solutions are added to the mixtures of CHO-A2b cells and reference or test compound solutions prepared as described above (preincubated for 30 minutes), final concentrations ranging from […] per well. The cells are incubated at 37° C., 5% CO2 and 100% humidity for 3 hours to induce release of cAMP, which then binds to cAMP binding protein (CBP) and the resulting complex interacts with the reporter plasmid to express Luciferase. 100 μl of Steady-Glo, a Luciferase assay substrate from Promega, is added to all wells to lyse the cells and generate luminescence in proportion to the amount of Lucifrease produced. The plates are left for a minimum of 5 minutes before being read on the luminescence program of a Topcount NXT microplate scintillation counter (ex Packard). Concentration—response curves are plotted from the luminescence data using Activity base software and KB values for the antagonists under test are calculated from the shifts of the curve at a particular concentration (KB=[antagonist]/(concentration ratio−1)

| SMILES | Kb [1] [nM] | melting point [°C] |
| --- | --- | --- |
| Cc1ccnc(Nc2nc(-c3cccc(C#N)c3)c(-c3ccncn3)s2)c1 [Example 4] | 38 |  |
| N#Cc1cccc(-c2nc(Nc3ccc(C(=O)O)cc3)sc2-c2ccnnc2)c1 [Example 15, 4-[4-(3-Cyano-phenyl)-5-pyridazin-4-yl-thiazol-2-ylamino]-benzoic acid] |  | > 275 |
| N#Cc1cccc(-c2nc(Nc3cnccn3)sc2-c2ccncn2)c1 [Example 12, 3-[2-(Pyrazin-2-ylamino)-5-pyrimidin-4-yl-thiazol-4-yl]-benzonitrile] | 2 | > 280 |
| N#Cc1cccc(-c2nc(Nc3ccccn3)sc2-c2ccncn2)c1 [Example 9] | 6 |  |
| N#Cc1cccc(Nc2nc(-c3cccc(C#N)c3)c(-c3ccncn3)s2)c1 [Example 6] | 29 |  |
| COc1cccc(C(=O)Nc2nc(-c3cccc(C#N)c3)c(-c3ccncn3)s2)c1 [Example 11, N-[4-(3-Cyano-phenyl)-5-pyrimidin-4-yl-thiazol-2-yl]-3-methoxy-benzamide] |  | 255 to 256 |
| CN(C)c1cc(-c2sc(Nc3cccc(F)c3)nc2-c2cccc(C#N)c2)cnn1 [Example 16] | 50 |  |
